Results on two molecules are retold here after paper PMC10829512, “Transport of metformin metabolites by guanidinium exporters of the small multidrug resistance family” (The Journal of General Physiology, 2024).

Structures are written as SMILES. “And” between values parts separate entries of the source, which are not always exact repeats. Equal entries are not always repeated. Where two headings read alike, the source gives them in different places.

The target in test [1] is T1, Gdx-Clo (Clostridiales bacterium oral taxon 876, UniProt U2EQ00).
T1 sequence (U2EQ00 1-105): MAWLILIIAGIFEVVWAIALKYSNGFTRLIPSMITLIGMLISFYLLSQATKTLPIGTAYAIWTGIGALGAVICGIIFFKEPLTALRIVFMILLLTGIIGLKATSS
As to the kind of experiment: Pyranine stoichiometry assay in proteoliposomes. The format is biochemical, Clostridales oral taxon 876. The note with it: 10-fold substrate gradient, equilibrium at −60 mV. The protocol: Unilamellar liposomes were formed by extrusion through a 400-nm membrane filter and the external pyranine was removed by passing liposomes through a Sephadex G-50 column spin column equilibrated in an internal buffer with substrate. The external assay buffers contained 25 mM HEPES, pH 7.53, 0.4 mM substrate, and varying KCl concentration (3–46 mM) to establish the membrane potential, with NaCl to bring the total salt concentration to 200 mM. Proteoliposomes were diluted 200-fold into the external buffer, and after ∼30 s to establish a baseline, valinomycin (final concentration 0.2 ng/ml) was added together with the substrate (final concentration 4 mM). Fluorescence spectra were monitored (λex = 455 nm; λem = 515 nm) for ∼300 s. The membrane potential was calculated using the Nernst potential for K^+: ψcalc=RT/Fln[K^+]out/[K^+]in. (1)
Fluorescence emission time courses were corrected for baseline drift measured prior to substrate and valinomycin addition. The stoichiometry was determined from the voltage at which electrochemical equilibrium occurred (no change in fluorescence over time) using the following equation: Erev=(n/m−n*RT/Fln[substrate^+]in/[substrate^+]out), (2) where n and m represent the stoichiometric coefficients of substrate and protons, respectively. […]

Test [2] concerns the target T1, Gdx-Clo. As to the kind of experiment: SSM electrophysiology of Gdx-Clo proteoliposomes. The note with it: for Transport currents in substrate screen: 2 mM substrate. The format is biochemical, Clostridales oral taxon 876. The procedure:
(§1) Gdx-Clo ([Kermani et al., 2018]), Gdx-Eco ([Kermani et al., 2018]), EmrE ([Kermani et al., 2022]), and Gdx-pAmi ([Martinez-Vaz et al., 2022]) construct design and purification have been described previously. […] Proteins were overexpressed in C41(DE3). Expression was induced by the addition of 0.2 mM IPTG for 3 h. Cells were lysed and extracted with 2% n-decyl-β-D-maltoside (DM) for 2 h. After pelleting insoluble cell debris, proteins were purified using cobalt affinity resin. Wash buffer contained 25 mM Tris, pH 8.5, 150 mM NaCl, and 5 mM DM. For Gdx-pAmi, NaCl concentration was increased to 500 mM NaCl. The affinity column was washed with wash buffer, then wash buffer with 10 mM imidazole, prior to elution with wash buffer with 400 mM imidazole. For Gdx-Clo and Gdx-Eco, histidine tags were cleaved with LysC (200 ng/mg of protein; 2 h at room temperature; New England Biolabs), and for all others, histidine tags were cleaved with thrombin (1 U/mg of protein, overnight at room temperature; MilliporeSigma). Proteins were further purified using a gel filtration Superdex200 column (Cytiva) equilibrated with 100 mM NaCl, 10 mM N-2-hydroxyethylpiperazine-N′-2-ethanesulfonic acid (HEPES), pH 7.5, and 5 mM DM. Purified proteins were stored at 4°C for up to 5 days before detergent binding assays. To prepare proteoliposomes for electrophysiology assays, purified protein was mixed with E. coli polar lipid extract (10 mg/ml; Avanti Polar Lipids) solubilized with 35 mM 3-[(3-cholamidopropyl)dimethylammonio]-1-propanesulfonate (CHAPS) at a protein to lipid ratio of 40 μg SMR transporter: mg lipid (1:370 protein:lipid molar ratio) prior to detergent removal by dialysis. For preparations that included Fluc-Bpe, liposomes were reconstituted with a molar ratio of 0.3 Fluc-Bpe:1 SMRGdx: 5920 lipid (1 μg Fluc-Bpe and ∼2.5 μg SMRGdx per mg lipid). For liposome transport assays, proteoliposomes were prepared similarly, except that a 2:1 mixture of 1-palmitoyl, 2-oleoylphosphatidylethanolamine (POPE) and 1-palmitoyl, 2-oleoylphosphatidylglycerol (POPG) (10 mg/ml; Avanti Polar Lipids) was used with 0.2 μg protein/mg lipid. Proteoliposomes were stored at −80°C until use.
(§2) SSM experiments were performed using SURFE^2R N1 instrument (Nanion Technologies). Sensors were prepared with a 1,2-diphytanoyl-sn-glycero-3-phosphocholine (DPhPC) lipid monolayer according to published protocols ([Bazzone et al., 2017]). Each sensor’s capacitance and conductance were verified before use (<80 nF capacitance, <50 nS conductance) using Nanion software protocols. Proteoliposome stock was diluted 1:25 in assay buffer (100 mM KCl, 100 mM KPO4, pH 7.5) prior to adsorption to the DPhPC monolayer. For substrate screening experiments, reference substrate samples (Gdm^+ for SMRGdx, and TPA^+ for SMRQac) were checked periodically to test for the stability of the sensor; if the current amplitude of the reference compound differed by >10% on one sensor, it indicated the desorption of liposomes, and the sensor was not used for further experiments. For every SSM electrophysiology experiment, we used the same general solution exchange protocol: after 2 s perfusion with a non-activating solution, we perfused substrate-containing buffer for 2 s and then returned to the equilibrium condition with a 4 s perfusion of non-activating buffer. For experiments with the S104C/A70C crosslinked variant, reducing conditions were established by the addition of 2.5 mM tris(2-carboxyethyl)phosphine (TCEP) to the activating and non-activating buffers.
(§3) We screened a series of metformin metabolites for transport using SSM electrophysiology (Fig. 2, A and B).

The next test deals with Gdx-pPro (Citrobacter freundii, UniProt O69279). The note with it: for Transport currents in substrate screen: 2 mM substrate.
Another test has as its system Gdx-pAmi. Nature of the test: SSM electrophysiology of Gdx-pAmi proteoliposomes. The note with it: for Transport currents in substrate screen: 2 mM substrate; for Km: pH 7.5, mean ± SEM, read-out: Km determined using SSM electrophysiology. The format is biochemical, Aminobacter sp. MET. The procedure:
as §1, §2, §3

Where [3] appears, read: pH 7.5, mean ± SEM, read-out: Km determined using SSM electrophysiology.
[4] abbreviates: substrate at fivefold Km, normalized to Fluc-Bpe fluoride current.

Chain of Gdx-pPro (O69279 2-105): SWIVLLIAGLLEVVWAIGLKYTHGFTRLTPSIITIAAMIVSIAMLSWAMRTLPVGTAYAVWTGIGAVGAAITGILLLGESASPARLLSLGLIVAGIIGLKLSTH

As for `N=C(N)NC(N)=O` [Guanylurea, guanylurea], the Proton coupling stoichiometry on Gdx-Clo [1] is reported as 2 H^+: 1 solute. Also, the “Transport currents in substrate screen” value at Gdx-Clo [2] was “transported”; at Gdx-pPro it was “negative capacitive currents”; with Gdx-pAmi, “negative capacitive currents”. The Km amounted to 220 ± 60 µM on Gdx-Clo [2] (setting [3]), 220 µM at Gdx-Clo [2] (read-out: Km value), 5000 µM in the test on Gdx-pAmi (listed as guanylurea) and 5200 ± 2000 µM in the test on Gdx-pAmi.

`N=C(N)N` [Gdm^+, guanidinium]: at Gdx-Clo [1], the Proton coupling stoichiometry is 2 H^+: 1 solute. Moreover, the “Transport currents in substrate screen” value is “transported” on Gdx-Clo [2], “negative capacitive currents” on Gdx-pPro and “negative capacitive currents” in the test with Gdx-pAmi. Further, the Michaelis-Menten constant (Km) was 500 ± 100 µM at Gdx-Clo [2] (setting [3]); 500 µM on Gdx-Clo [2] (read-out: Km value); 16000 µM and 15700 µM in the test with Gdx-pAmi. Further, the “Maximal velocity for Gdm+ relative to guanylurea” value at Gdx-Clo [2] (setting [4]) and at Gdx-pPro (setting [4]) was “approximately twofold higher” each time. Also, in the test on Gdx-pAmi (substrate at fivefold Km, normalized to Fluc-Bpe fluoride current and reconstitution efficiency), the “Turnover rate of Gdm+ relative to guanylurea” value was “comparable”.

The term Km denotes the concentration of substrate that gives half-maximal velocity.
